Eight molecules from patent US11773077B2, “Compounds containing carbon-carbon linker as GPR120 agonists” (PIRAMAL ENTERPRISES LIMITED, priority 2015, dated 2023) can be followed below.

The target of this assay is T1, GPR120L (Long Isoform) receptor (Homo sapiens, UniProt Q5NUL3).
T1 construct: expressed in transfected cells; similar procedure in HEK 293 cells
T1 sequence (Q5NUL3 1-377 isoform Q5NUL3-1): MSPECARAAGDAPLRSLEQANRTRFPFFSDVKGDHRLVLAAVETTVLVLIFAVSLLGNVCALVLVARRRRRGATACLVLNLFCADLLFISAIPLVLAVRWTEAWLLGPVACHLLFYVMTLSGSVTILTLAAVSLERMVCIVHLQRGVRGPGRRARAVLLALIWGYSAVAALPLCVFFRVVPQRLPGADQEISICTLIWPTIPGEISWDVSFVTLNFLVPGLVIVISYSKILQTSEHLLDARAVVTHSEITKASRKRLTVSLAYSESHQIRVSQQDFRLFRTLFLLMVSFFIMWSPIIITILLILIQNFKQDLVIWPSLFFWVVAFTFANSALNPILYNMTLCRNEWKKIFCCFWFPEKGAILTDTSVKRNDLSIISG
The assay can be described thus: Beta (β) arrestin 2 Interaction Assay (β-galactosidase enzyme fragment complementation). The assay is classed as cell-based. The conditions noted are these: β-arrestin recruitment; CHO-K1 cells stably expressing GPR120L, similar procedure for HEK 293 cells; 2 hours incubation. As to the method: Beta (β) arrestin 2 Interaction Assay […] was performed using CHO-K1 cells stably expressing the GPR120L (Long Isoform) receptor using β-galactosidase (Beta gal) enzyme fragment complementation assay. The measurement of GPR120 activation upon agonist activation was directly provided by β-arrestin recruitment. One day before the β-arrestin 2 assay, CHO-K1 cells were seeded and incubated overnight at 37° C. in a 5% CO2 humidified atmosphere. Cells were treated with the test compounds in various concentrations ranging from 30 μM to 1 nM and incubated for 2 hours for GPCR (GPR120) activation. Extent of Arrestin recruitment was measured by adding detection reagents for Beta gal complementation assay, and was further incubated for 1 hour. The chemiluminescent signal was detected on Polar Star (BMG Labtech). The dose-response curve was analyzed using Sigma Plot/Graph Pad. The EC50 (concentration of the test compounds where 50% of compounds' maximal activity is observed) values were calculated from the dose-response curve.
`O=C(O)CCCc1ccc(C#Cc2cc(F)ccc2-c2ccc(C3CC3)s2)cc1` [Compound 18, 4-(4-((2-(5-cyclopropylthiophen-2-yl)-5-fluorophenyl)ethynyl)phenyl)butanoic acid]: the EC50 lay in the range of 50 to 500 nM.

For the molecule `CC1(c2ccc(-c3ccc(F)cc3CC(F)(F)c3ccc(CCCC(=O)O)cc3)s2)CC1` [Compound 6, 4-(4-(1,1-Difluoro-2-(5-fluoro-2-(5-(1-methylcyclopropyl)thiophen-2-yl)phenyl)ethyl)phenyl)butanoic acid], the half-maximal effective concentration (EC50) lay within 500 to 5000 nM.

As to `CC1(c2ccc(-c3ccc(F)cc3C=Cc3ccc(CCCC(=O)O)cc3)s2)CC1` [Compound 14, 4-(4-(5-fluoro-2-(5-(1-methylcyclopropyl)thiophen-2-yl)styryl)phenyl)butanoic acid], the EC50 is 50 to 500 nM.

`O=C(O)CCCc1ccc(CCc2cc(F)ccc2-c2nc3c(s2)CCCC3)cc1` [Compound 12, 4-(4-(5-fluoro-2-(4,5,6,7-tetrahydrobenzo[d]thiazol-2-yl)phenethyl)phenyl)butanoic acid]: the EC50 lay in the range of 50 to 500 nM.

The molecule `Cc1ccc(-c2ccc(F)cc2CC(F)(F)c2ccc(CCCC(=O)O)cc2)s1` [Compound 5, 4-(4-(1,1-Difluoro-2-(5-fluoro-2-(5-methylthiophen-2-yl)phenyl)ethyl)phenyl)butanoic acid] came in with an EC50 of 50 to 500 nM.

`N#CC1(c2ccc(-c3ccc(F)cc3C#Cc3ccc(CCCC(=O)O)cc3)s2)CC1` [Compound 11, 4-(4-((2-(5-(1-Cyanocyclopropyl)thiophen-2-yl)-5-fluorophenyl)ethynyl)phenyl)butanoic acid]: the EC50 lay within 500 to 5000 nM.

The molecule `COc1ccc(-c2ccc(F)cc2CC(F)(F)c2ccc(CCCC(=O)O)cc2)cn1` [Compound 20, 4-(4-(1,1-difluoro-2-(5-fluoro-2-(6-methoxypyridin-3-yl)phenyl)ethyl)phenyl)butanoic acid] had an EC50 of 50 to 500 nM.

`Cc1ccc(-c2ccc(F)cc2C#Cc2ccc(CCCC(=O)O)nc2)s1` [Compound 3, 4-(5-((5-Fluoro-2-(5-methylthiophen-2-yl)phenyl)ethynyl)pyridin-2-yl)butanoic acid] had an EC50 of 5000 to 10000 nM.
